Results on 102 compounds are retold here after ChEMBL document CHEMBL3507680, “University of Dundee, Gates Library screen for HepG2 cell viability”.

Molecules are shown by their SMILES.

The data set is described as follows: Human HepG2 cell viability assay in 384 well format. Also on record: dose 125 nL, time 70.5 hour; cytotoxicity at 70.5 h: concentration not given beside the values. The class given is toxicity, cell-based. The settings on record: HepG2 cells, read-out: Inhibition.
On to `Cc1ncsc1C(=O)NCCNc1ncccc1C#N`, for which the cytotoxicity at 70.5 h is -8.88%.

For `CCc1nc(C)c(C(=O)NCCNc2ncccc2C#N)s1`, the cytotoxicity at 70.5 h was found to be 19.3%.

In the case of `Cn1ncc2c1CCCC2NCc1cccc(OC2CCCC2)c1` (configuration not stated), the cytotoxicity at 70.5 h is -5.51%.

Take `CC(C)Oc1ncccc1CNC(=O)c1cc(C2CC2)on1`: the cytotoxicity at 70.5 h stood at 16%.

As to `COc1ccnc(N2CCN(C(=O)c3ccc(Cl)o3)CC2)n1`, the cytotoxicity at 70.5 h was -4.43%.

Take `COc1cc(C)nc(N2CCN(C(=O)c3ccoc3C)CC2)n1`: the cytotoxicity at 70.5 h is -6.48%.

In the case of `Cc1ccc2cc(C(=O)N3CCC(Nc4cccnn4)CC3)[nH]c2c1`, the cytotoxicity at 70.5 h was 21.4%.

On to `Cc1cccc2[nH]cc(CC(=O)N3CCC(Nc4cccnn4)CC3)c12`, for which the cytotoxicity at 70.5 h is 0.978%.

Regarding `O=C(Cc1noc2ccccc12)N1CCC(Nc2cccnn2)CC1`, the cytotoxicity at 70.5 h was -5.81%.

On to `O=C(Cc1cccc2ccccc12)N1CCC(Nc2cccnn2)CC1`, for which the cytotoxicity at 70.5 h was -7.06%.

Take `CC(=O)Nc1nc(CN(C)C2CCCN(c3cccnn3)C2)cs1` (configuration not stated): the cytotoxicity at 70.5 h is -13.5%.

On to `CN(Cc1cnn(-c2ccccc2)n1)C1CCCN(c2cccnn2)C1` (configuration not stated), for which the cytotoxicity at 70.5 h was -12.2%.

In the case of `Cc1nc(C)n(C2CCCN(C(=O)c3c[nH]c(C(C)C)n3)C2)n1` (configuration not stated), the cytotoxicity at 70.5 h was -11.1%.

In the case of `Cc1nccn1C1CCCN(C(=O)c2cccc(S(C)(=O)=O)c2)C1` (configuration not stated), the cytotoxicity at 70.5 h was -11.1%.

Turning to `O=C(CCCn1cncn1)N1CCCC1c1noc(C2CC2)n1` (configuration not stated), the cytotoxicity at 70.5 h was -3.05%.

On to `COCCCNC(=O)c1c(C)noc1C(C)C`, for which the cytotoxicity at 70.5 h is -11.8%.

As for `CC(O)(CN1CCN(CCO)CC1)c1cccc(C(F)(F)F)c1` (configuration not stated), the cytotoxicity at 70.5 h was 14.6%.

With `CCc1nccn1C1CCCN(C(=O)c2csc(C3CC3)n2)C1` (configuration not stated), the cytotoxicity at 70.5 h was -22%.

As for `CCN1CCOC(CNCc2csc(C)n2)C1` (configuration not stated), the cytotoxicity at 70.5 h was -14.2%.

For `Cc1nccn1C1CCCN(C(=O)c2cccc(-n3cccc3)c2)C1` (configuration not stated), the cytotoxicity at 70.5 h was determined as 11.6%.

`c1cnn(CC2CCCN2Cc2ccc(-n3cccn3)cc2)c1` (configuration not stated): the cytotoxicity at 70.5 h is -8.68%.

With `CC(Cn1ccnc1)NC(=O)N1CCCN(Cc2cccs2)CC1` (configuration not stated), the cytotoxicity at 70.5 h was -14%.

On to `Cc1nc(C2CCCN2C(=O)CCn2cncn2)no1` (configuration not stated), for which the cytotoxicity at 70.5 h is -3.86%.

With `CC1CCN(Cc2ccc(CNC(=O)c3ccn(C)c(=O)c3)cc2)CC1`, the cytotoxicity at 70.5 h is -9.84%.

For `CCOc1ncccc1CNC(=O)Nc1ccc(CC)cc1`, the cytotoxicity at 70.5 h was -7.83%.

As for `CN(C)c1ncccc1CNS(=O)(=O)c1ccccc1Cl`, the cytotoxicity at 70.5 h is -4.36%.

`CC(=O)NC1CCCN(C(=O)NCCOc2ccc3c(c2)OCO3)C1` (configuration not stated): the cytotoxicity at 70.5 h was -10.3%.

For `CC(Cn1ccnc1)NC(=O)N1CCN(Cc2cccs2)CC1` (configuration not stated), the cytotoxicity at 70.5 h stood at 13.9%.

Take `CN(C)c1ncccc1CNS(=O)(=O)c1c(F)cccc1F`: the cytotoxicity at 70.5 h was -8.75%.

Consider `Cn1ccc(C(=O)NCc2ccc(CN3CCCC3)cc2)cc1=O`, for which the cytotoxicity at 70.5 h was -12.4%.

On to `Cc1nn(C)c(N(C)C)c1CNC(C)COc1ccc(F)cc1` (configuration not stated), for which the cytotoxicity at 70.5 h is -4.85%.

`CC(=O)NCCCC(=O)NC(C)c1nnc2n1CCC2` (configuration not stated): the cytotoxicity at 70.5 h was -11.1%.

For `CN(C)c1ccc(NC(=O)NCc2cccnc2N(C)C)cn1`, the cytotoxicity at 70.5 h is -8.32%.

As for `c1ccc(-n2ccc(CN3CCCC3Cn3cncn3)n2)cc1` (configuration not stated), the cytotoxicity at 70.5 h was -3.62%.

For the compound `COCc1nc(C(=O)N2CCCC(n3ccnc3)C2)cs1` (configuration not stated), the cytotoxicity at 70.5 h was -10%.

Regarding `CC(C)c1nc(C2CCCN2C(=O)CCn2cncn2)no1` (configuration not stated), the cytotoxicity at 70.5 h is -7.37%.

`CCn1nc2c(cc1=O)CN(CC(=O)Nc1nncs1)CC2`: the cytotoxicity at 70.5 h was -10.2%.

With `CCc1n[nH]c(C2CN(C(=O)c3ccc(Cl)cn3)CCO2)n1` (configuration not stated), the cytotoxicity at 70.5 h is -8.84%.

Take `O=C(c1cccc(F)c1)N1CCCN(Cc2cscn2)CC1`: the cytotoxicity at 70.5 h came out at 21.5%.

Turning to `Cc1cnn(CCNCc2nnc(-c3occc3C)o2)c1`, the cytotoxicity at 70.5 h is -5.91%.

As to `CCn1cc(NC(=O)NCc2ccc(CO)c(F)c2)cn1`, the cytotoxicity at 70.5 h is -7.1%.

Turning to `CCn1cc(NC(=O)NCCc2ccc3c(c2)OCO3)cn1`, the cytotoxicity at 70.5 h is -10.2%.

`COc1c(CNC2CCc3ccccc32)c(C)nn1C` (configuration not stated): the cytotoxicity at 70.5 h was -10.5%.

Regarding `CC(C)CCN(C(=O)c1ccc(-n2ncc(C#N)c2N)cc1)C1CC1`, the cytotoxicity at 70.5 h is -6.84%.

On to `COc1ccc(Cl)cc1CC(=O)N1CCN(CC(C)(C)O)CC1`, for which the cytotoxicity at 70.5 h was -3.48%.

As for `CC(C)(C)c1cc(NC(=O)CN2CCC(N3CCNC3=O)CC2)on1`, the cytotoxicity at 70.5 h came out at 17%.

Turning to `O=C(NCCC(=O)N1CCCCCCC1)c1ccoc1`, the cytotoxicity at 70.5 h is -1.22%.

With `CC(C)c1nc(CN(C)C2CCN(CCc3ccncc3)C2)no1` (configuration not stated), the cytotoxicity at 70.5 h is -2.44%.

Turning to `COCc1ccc(C(=O)N2CCCN(Cc3cscn3)CC2)cc1`, the cytotoxicity at 70.5 h is -6.01%.

For the compound `CCc1nc(CN(C)C2CCN(CCCOc3ccccc3)C2)no1` (configuration not stated), the cytotoxicity at 70.5 h stood at 9.63%.

Turning to `Cc1cnc(CN(C)C2CCN(Cc3nnc(C4CC4)o3)C2)o1` (configuration not stated), the cytotoxicity at 70.5 h is -4.32%.

Consider `Cc1cc(C)n(CC2CN(Cc3noc(C4CC4)n3)CCO2)n1` (configuration not stated), for which the cytotoxicity at 70.5 h was -6.69%.

As to `CC(C)c1n[nH]c(C2CN(C(=O)CCn3ccccc3=O)CCO2)n1` (configuration not stated), the cytotoxicity at 70.5 h is -2.51%.

`Cc1ccc(N2CCCC(NCC(=O)NC3CCOCC3)C2)nn1` (configuration not stated): the cytotoxicity at 70.5 h was -3.6%.

Turning to `CCNC(c1ccc(OC)cc1)c1cccnc1` (configuration not stated), the cytotoxicity at 70.5 h is -8.14%.

As to `Cc1nn(C)c(Cl)c1C1CCCN1CC(=O)NCc1ccccn1` (configuration not stated), the cytotoxicity at 70.5 h was -7.66%.

Consider `c1ccc2cc(OCCN3CCOC(Cn4cncn4)C3)ccc2c1` (configuration not stated), for which the cytotoxicity at 70.5 h came out at 27.8%.

Turning to `Cc1nc(C(=O)N2CCCC(n3cncn3)C2)cs1` (configuration not stated), the cytotoxicity at 70.5 h was -3.83%.

With `CC(C)N1CCC(CNCc2c[nH]nc2C(C)(C)C)C1` (configuration not stated), the cytotoxicity at 70.5 h was -0.871%.

As for `Cc1ccc(N2CCCC(NCc3ccsc3)C2)nn1` (configuration not stated), the cytotoxicity at 70.5 h was -4.89%.

As for `O=C(CCOCc1ccccc1)N1CCCC1c1noc(C2CC2)n1` (configuration not stated), the cytotoxicity at 70.5 h was -2.09%.

Regarding `Cc1ccc(NC2CCN(C(=O)Cc3cccc(F)c3)CC2)nn1`, the cytotoxicity at 70.5 h is -4.83%.

Regarding `Cc1nc(C)n(CC2CCCN(Cc3nc(C4CC4)no3)C2)n1` (configuration not stated), the cytotoxicity at 70.5 h is -1.73%.

`Cc1nc(C)n(CC2CCCN(c3ncnc4sccc34)C2)n1` (configuration not stated): the cytotoxicity at 70.5 h was 29.9%.

Turning to `COCCc1noc(CN2CCCC(Cn3nc(C)nc3C)C2)n1` (configuration not stated), the cytotoxicity at 70.5 h turned out to be 2.6%.

For the compound `O=C(CCc1cscn1)N1CCCC1c1noc(C2CC2)n1` (configuration not stated), the cytotoxicity at 70.5 h was -15.3%.

Turning to `CCn1cnnc1CNC(=O)N(C)Cc1ccc(F)c(F)c1`, the cytotoxicity at 70.5 h was -5.87%.

With `CN(CCCc1ccccc1)Cc1nc2c(cnn2C)c(=O)[nH]1`, the cytotoxicity at 70.5 h was -5.07%.

On to `COCCN(Cc1nc2c(cnn2C)c(=O)[nH]1)Cc1ccco1`, for which the cytotoxicity at 70.5 h was -7.8%.

Take `CCOc1cccc2c1OCC(C(=O)NS(=O)(=O)Cc1ccccc1)=C2`: the cytotoxicity at 70.5 h is 1.24%.

For `COCCOc1ccccc1CNCc1c(C)nn(C)c1N(C)C`, the cytotoxicity at 70.5 h is -0.188%.

Regarding `CCOC1CCN(C(=O)c2cnn(-c3ccccc3Cl)c2)CC1`, the cytotoxicity at 70.5 h was 2.04%.

Regarding `O=C(c1cnc(C2CC2)s1)N1CCCC(n2cccn2)C1` (configuration not stated), the cytotoxicity at 70.5 h is -2.13%.

Regarding `c1ccc2sc(N3CCOC(Cn4cccn4)C3)nc2c1` (configuration not stated), the cytotoxicity at 70.5 h amounted to 3.57%.

Take `Cc1cnn(C2CCCN(C(=O)c3cn4cccnc4n3)C2)c1` (configuration not stated): the cytotoxicity at 70.5 h was -3.94%.

For the compound `Cc1ccc(NC2CCN(C(=O)Cc3ccc(C#N)cc3)CC2)nn1`, the cytotoxicity at 70.5 h is -1.55%.

`CN(c1ccc(F)c(F)c1)S(=O)(=O)c1cc(C(=O)O)cs1`: the cytotoxicity at 70.5 h was -6.55%.

As for `CN(c1ccc(C(C)(C)C)cc1)S(=O)(=O)c1cc(C(=O)O)cs1`, the cytotoxicity at 70.5 h was -10.9%.

With `CCN(CC)Cc1ccc(C(=O)N2CCN(CC(C)O)CC2)cc1` (configuration not stated), the cytotoxicity at 70.5 h is -4.2%.

As to `Cc1nccn1CCCC(=O)N1CCC(Nc2cccnn2)CC1`, the cytotoxicity at 70.5 h turned out to be 5.36%.

As to `c1ccc2sc(CN3CCOC(Cn4cncn4)C3)nc2c1` (configuration not stated), the cytotoxicity at 70.5 h was -4.62%.

As to `Cc1nccn1CC1CCCN1CCCc1nc(-c2cccs2)no1` (configuration not stated), the cytotoxicity at 70.5 h was 9.19%.

`Cc1ccc(C)c(NC(=O)N(C)Cc2cnn(C)c2)c1`: the cytotoxicity at 70.5 h was -3.32%.

As to `CN(Cc1nnc2n1CCC2)C(=O)NCCc1ccc2c(c1)OCO2`, the cytotoxicity at 70.5 h was -11.6%.

In the case of `CN(Cc1nnc2n1CCC2)C(=O)Cc1ccc2c(c1)OCCO2`, the cytotoxicity at 70.5 h was -4.37%.

In the case of `O=C1OCCC1N1CCN(C(=O)Cc2c[nH]c3ccccc23)CC1` (configuration not stated), the cytotoxicity at 70.5 h turned out to be 7.81%.

On to `CC1CCCCN1CCNC(=O)c1ccn(-c2ccc(F)cc2)n1` (configuration not stated), for which the cytotoxicity at 70.5 h came to 35.6%.

As for `O=C(CCC1CCCO1)NS(=O)(=O)c1ccc(Cl)cc1` (configuration not stated), the cytotoxicity at 70.5 h is -5.11%.

Take `CCC(C)NC(=O)NCCCn1nc2ccccn2c1=O` (configuration not stated): the cytotoxicity at 70.5 h is -9.52%.

`O=C(NCCNc1ncccn1)c1ccc(-c2ccco2)[nH]c1=O`: the cytotoxicity at 70.5 h was -2.56%.

`Cc1csc(N2CCN(C(=O)Cc3ccsc3)CC2)n1`: the cytotoxicity at 70.5 h was determined as 31.2%.

`Cc1csc(N2CCN(C(=O)CCc3ccccn3)CC2)n1`: the cytotoxicity at 70.5 h was -2.58%.

Regarding `Cc1csc(N2CCN(C(=O)CCc3nccs3)CC2)n1`, the cytotoxicity at 70.5 h is -2.43%.

Take `O=C(NCCOCC(F)(F)F)c1ccc(-c2ccco2)[nH]c1=O`: the cytotoxicity at 70.5 h is -9.67%.

Turning to `Cc1cc(C)n(CC2CCCN2C(=O)Cc2c(C)noc2C)n1` (configuration not stated), the cytotoxicity at 70.5 h is 7.13%.

Turning to `CCc1nccn1C1CCCN(C(=O)c2cc3nc(C)ccc3o2)C1` (configuration not stated), the cytotoxicity at 70.5 h was -2.05%.

As to `CCc1nccn1C1CCCN(C(=O)c2cnn(C)c2C2CC2)C1` (configuration not stated), the cytotoxicity at 70.5 h is -0.779%.

Consider `CNS(=O)(=O)c1cccc(CNc2cc(C(F)(F)F)ccn2)c1`, for which the cytotoxicity at 70.5 h was -0.978%.

On to `COc1ccc(-n2ccc(C(=O)NCCN3CCCCC3C)n2)cc1` (configuration not stated), for which the cytotoxicity at 70.5 h amounted to 7.59%.

Take `Cc1ccccc1CN1CCCN(C2CCOC2=O)CC1` (configuration not stated): the cytotoxicity at 70.5 h stood at 3.44%.

Take `c1csc(-c2noc(CCCN3CCCC3Cn3cccn3)n2)c1` (configuration not stated): the cytotoxicity at 70.5 h was -8.63%.

On to `O=C(c1ccc2c(c1)CCCC2)N1CCOCC1c1ncon1` (configuration not stated), for which the cytotoxicity at 70.5 h is 2.82%.
